In patent publication US5073557A, “Novel substituted pyrazine, formulations thereof and use in medicine” (Merck Sharp & Dohme Limited, priority 1989, dated 1991):
pEC50: −log10 of the molar value.

What was measured:
Type in all cases: cell-based
[1] = molecular target: T1, M1 muscarinic receptor (ganglion) (Rattus norvegicus, UniProt P08482); assay: Agonist activity against muscarinic receptors in the ganglion (M1 agonist activity); conditions: for pEC50: ganglion
T1 construct: agonist activity against muscarinic receptors in the ganglion, heart and ileum; from tissue
T1 sequence (P08482 1-460): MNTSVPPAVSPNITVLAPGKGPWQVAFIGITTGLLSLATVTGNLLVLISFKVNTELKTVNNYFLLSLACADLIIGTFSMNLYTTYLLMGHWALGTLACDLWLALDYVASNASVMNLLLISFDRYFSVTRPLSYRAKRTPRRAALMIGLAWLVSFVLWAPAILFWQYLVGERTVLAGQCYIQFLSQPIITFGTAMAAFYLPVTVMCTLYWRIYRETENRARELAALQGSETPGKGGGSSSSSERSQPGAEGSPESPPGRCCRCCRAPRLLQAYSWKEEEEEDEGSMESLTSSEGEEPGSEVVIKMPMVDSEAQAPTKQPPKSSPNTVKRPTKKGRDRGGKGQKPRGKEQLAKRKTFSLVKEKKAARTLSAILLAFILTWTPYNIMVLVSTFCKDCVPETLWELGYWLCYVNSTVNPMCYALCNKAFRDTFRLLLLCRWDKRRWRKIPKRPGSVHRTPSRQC
Text: (§1) European Patent Application No. 89200147 (Publication No. 327155) discloses a class of pyrazines, pyridazines or pyrimidines, and salts and prodrugs thereof, substituted on one of the ring carbon atoms thereof with a non-aromatic azacyclic or azabicyclic ring system; and independently substituted on each of the other ring carbon atoms with a substituent of low lipophilicity or a hydrocarbon substituent, which compounds stimulate cholinergic transmission.
(§2) The following results are obtained in pharmacological assays to allow agonist activity against muscarinic receptors in the ganglion, heart and ileum.

[2] = molecular target: T2, M3 muscarinic receptor (ileum) (Cavia porcellus, UniProt H0W1Z3); assay: Agonist activity against muscarinic receptors in the ileum (M3 agonist activity)
T2 construct: agonist activity against muscarinic receptors in the ganglion, heart and ileum; from tissue; host or cells: ileum
T2 sequence (H0W1Z3 1-590): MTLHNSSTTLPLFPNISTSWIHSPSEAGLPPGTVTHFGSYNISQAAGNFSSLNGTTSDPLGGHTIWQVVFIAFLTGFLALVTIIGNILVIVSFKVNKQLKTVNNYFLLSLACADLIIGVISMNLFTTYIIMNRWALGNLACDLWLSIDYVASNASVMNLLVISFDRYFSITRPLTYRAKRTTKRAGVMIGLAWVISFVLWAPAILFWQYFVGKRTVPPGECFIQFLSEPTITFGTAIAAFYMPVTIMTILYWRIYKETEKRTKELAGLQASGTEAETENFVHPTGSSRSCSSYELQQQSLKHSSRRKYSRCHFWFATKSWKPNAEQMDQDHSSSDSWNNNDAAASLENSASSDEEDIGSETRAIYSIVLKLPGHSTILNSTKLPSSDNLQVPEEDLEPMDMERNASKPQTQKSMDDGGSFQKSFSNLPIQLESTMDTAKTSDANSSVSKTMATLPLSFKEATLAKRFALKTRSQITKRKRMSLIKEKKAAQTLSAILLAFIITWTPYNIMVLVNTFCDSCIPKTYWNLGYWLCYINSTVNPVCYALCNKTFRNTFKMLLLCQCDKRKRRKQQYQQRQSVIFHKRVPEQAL
Text: as §1, §2

[3] = molecular target: T3, M2 muscarinic receptor (heart) (Cavia porcellus, UniProt H0VRN8); assay: Pharmacological assay on muscarinic receptors in the heart (M2 antagonist activity); conditions: read-out: Heart (pA2) (converted)
T3 construct: agonist activity against muscarinic receptors in the ganglion, heart and ileum; from tissue
T3 sequence (H0VRN8 1-466): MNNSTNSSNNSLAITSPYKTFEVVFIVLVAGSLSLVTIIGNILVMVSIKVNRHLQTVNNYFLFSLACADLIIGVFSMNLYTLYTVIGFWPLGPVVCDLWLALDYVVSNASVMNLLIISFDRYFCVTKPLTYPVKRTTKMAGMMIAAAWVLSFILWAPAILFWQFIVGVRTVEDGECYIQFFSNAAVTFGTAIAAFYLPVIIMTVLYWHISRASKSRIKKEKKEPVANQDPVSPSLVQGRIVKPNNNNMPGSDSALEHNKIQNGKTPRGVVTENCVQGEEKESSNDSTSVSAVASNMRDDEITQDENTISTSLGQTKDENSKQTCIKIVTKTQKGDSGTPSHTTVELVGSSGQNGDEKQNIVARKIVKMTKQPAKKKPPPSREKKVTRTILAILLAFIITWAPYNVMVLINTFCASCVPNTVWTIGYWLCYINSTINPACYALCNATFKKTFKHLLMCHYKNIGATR
Text: as §1, §2

## Clc1cncc([C@H]2CN3CCC2CC3)n1 [(1), (R)-3-[2-(6-chloropyrazin)yl]-1-azabicyclo[2.2.2]octane]
[1]; M1 receptor, versus (S)-enantiomer
  potency at the M1 receptor relative to the corresponding (S)-enantiomer: four times
[1]; M1 receptor, versus racemate
  potency at the M1 receptor relative to the corresponding racemate: twice the potency
[1]
  pEC50: 7.30
[2]
  pEC50: 7.40
[3]
  Kb: 63.1 nM

## Clc1cncc(C2CN3CCC2CC3)n1 (racemic) [racemate, 3-[2-(6-chloropyrazin)yl]-1-azabicyclo[2.2.2]octane]
[1]
  pEC50: 7.00
[2]
  pEC50: 7.52
[3]
  Kb: 79.4 nM

## Clc1cncc([C@@H]2CN3CCC2CC3)n1 [(S) isomer]
[1]
  pEC50: 6.70
[2]
  pEC50: 6.22
[3]
  Kb: 126 nM
